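Five compound concentrations were applied to cells in 96-well plates for 48 hours; endpoints were derived by simple linear interpolation of the resulting dose-response curve. GI50 = concentration required for 50% inhibition of growth.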 The source made the active and inactive calls. Cut-off read from the data, not from the text of the source: active = GI50 up to about 1.1 µM and inactive = higher.
What was measured:
Test in all cases: inhibition of tumour cell growth, NCI panel, 48 h
[1] = tested on: U-251
[2] = tested on: EKVX
[3] = tested on: T47D
[4] = tested on: NCI-H522
[5] = tested on: MDA-MB-435
[6] = tested on: HT-29
[7] = tested on: SNB-19
[8] = tested on: CAKI-1
[9] = tested on: Hs-578T
[10] = tested on: COLO 205
[11] = tested on: NCI/ADR-RES
[12] = tested on: NCI-H23
[13] = tested on: HCC 2998
[14] = tested on: NCI-H460
[15] = tested on: NCI-H226
[16] = tested on: TK-10
[17] = tested on: HOP-62
[18] = tested on: SK-MEL-2
[19] = tested on: SF-295
[20] = tested on: HCT-15

| Compound | GI50 [1] | GI50 [2] | GI50 [3] | GI50 [4] | GI50 [5] | GI50 [6] | GI50 [7] | GI50 [8] | GI50 [9] | GI50 [10] | GI50 [11] | GI50 [12] | GI50 [13] | GI50 [14] | GI50 [15] | GI50 [16] | GI50 [17] | GI50 [18] | GI50 [19] | GI50 [20] |
| --- | --- | --- | --- | --- | --- | --- | --- | --- | --- | --- | --- | --- | --- | --- | --- | --- | --- | --- | --- | --- |
| CC1CCN(CC(=O)N2c3ccccc3Sc3cc4ccccc4cc32)CC1 | > 100 µM (inactive) | > 100 µM (inactive) | > 100 µM (inactive) | > 100 µM (inactive) | > 100 µM (inactive) | 48 µM (inactive) | > 100 µM (inactive) | > 100 µM (inactive) | > 100 µM (inactive) | > 100 µM (inactive) | > 100 µM (inactive) | > 100 µM (inactive) | 67.6 µM (inactive) | 37.5 µM (inactive) | > 100 µM (inactive) | > 100 µM (inactive) | > 100 µM (inactive) | > 100 µM (inactive) | > 100 µM (inactive) | > 100 µM |
| CCCNC(=S)N/N=C1\C(=O)Nc2ccccc21 | > 100 µM (inactive) | > 100 µM (inactive) | > 100 µM (inactive) | > 100 µM (inactive) | > 100 µM (inactive) | > 100 µM (inactive) | > 100 µM (inactive) | > 100 µM (inactive) | > 100 µM (inactive) | > 100 µM (inactive) | > 100 µM (inactive) | > 100 µM (inactive) | > 100 µM (inactive) | > 100 µM (inactive) | > 100 µM (inactive) | > 100 µM (inactive) | > 100 µM (inactive) | > 100 µM (inactive) | > 100 µM (inactive) | > 100 µM |
| O=C1c2ccccc2C(=O)c2c(NC(=O)C(Cl)CCl)cccc21 (stereo not given) | 3.33 µM (inactive) | 19.4 µM (inactive) | 2.75 µM (inactive) | 2.16 µM (inactive) | 7.11 µM (inactive) | 3.05 µM (inactive) | 15.2 µM (inactive) | 16.3 µM (inactive) | 31.3 µM (inactive) | 6.47 µM (inactive) | 23.1 µM (inactive) | 4.03 µM (inactive) | 13.6 µM (inactive) | 6.32 µM (inactive) | 17.5 µM (inactive) | 4.37 µM (inactive) | 10.5 µM (inactive) | 5.09 µM (inactive) | 26.7 µM (inactive) | 6.65 µM |
| Cn1c2ccccc2c(=NNc2ccc(S(N)(=O)=O)cc2)c2ccccc21 | 19 µM (inactive) | 12 µM (inactive) | 5.45 µM (inactive) | 11.2 µM (inactive) | 16.2 µM (inactive) | 17.6 µM (inactive) | 27.6 µM (inactive) | 15.7 µM (inactive) | 32.7 µM (inactive) | 18.7 µM (inactive) | 14.1 µM (inactive) | 16 µM (inactive) | 14.9 µM (inactive) | 9.18 µM (inactive) | 10.9 µM (inactive) | 15 µM (inactive) | 15.3 µM (inactive) | 10.5 µM (inactive) | 13.6 µM (inactive) | 16.2 µM |
| COc1cc(O)c2c(=O)c3cccc(C)c3[nH]c2c1 | > 10 µM (inactive) | > 10 µM (inactive) | > 10 µM (inactive) | > 10 µM (inactive) | > 10 µM (inactive) | > 10 µM (inactive) | > 10 µM (inactive) | > 10 µM (inactive) | > 10 µM (inactive) | > 10 µM (inactive) | > 10 µM (inactive) | > 10 µM (inactive) | > 10 µM (inactive) | > 10 µM (inactive) | > 10 µM (inactive) | > 10 µM (inactive) | > 10 µM (inactive) | > 10 µM (inactive) | > 10 µM (inactive) | > 10 µM |
| c1ccc2c(c1)[C@@H]1O[C@@H]1[C@@]13O[C@@]21[C@H]1O[C@H]1c1ccccc13 | 12.3 µM (inactive) | 17 µM (inactive) | 17.8 µM (inactive) | 10.8 µM (inactive) | 13.7 µM (inactive) | 20.2 µM (inactive) | 16.1 µM (inactive) | 10.8 µM (inactive) | 13 µM (inactive) | 15.7 µM (inactive) | 16.3 µM (inactive) | 14 µM (inactive) | 16.6 µM (inactive) | 14.7 µM (inactive) | 15.3 µM (inactive) | 18.1 µM (inactive) | 15.5 µM (inactive) | 14.7 µM (inactive) | 15.1 µM (inactive) | 19.5 µM |
| O=[N+]([O-])c1cc2c([N+](=O)[O-])cccc2o1 | 18.4 µM (inactive) | 2.56 µM (inactive) | 6.7 µM (inactive) | 0.479 µM (active) | 18 µM (inactive) | 4.09 µM (inactive) | 19.2 µM (inactive) | 2.22 µM (inactive) | 13.1 µM (inactive) | 4.57 µM (inactive) | 14.3 µM (inactive) | 15.8 µM (inactive) | 17.6 µM (inactive) | > 100 µM (inactive) | 12.6 µM (inactive) | 9.25 µM (inactive) | 18.5 µM (inactive) | 9.16 µM (inactive) | 22.9 µM (inactive) | 4.59 µM |
| CCN(C(=O)/C=C/c1ccco1)c1ccccc1 | > 100 µM (inactive) | > 100 µM (inactive) | > 100 µM (inactive) | > 100 µM (inactive) | > 100 µM (inactive) | > 100 µM (inactive) | > 100 µM (inactive) | > 100 µM (inactive) | > 100 µM (inactive) | > 100 µM (inactive) | > 100 µM (inactive) | > 100 µM (inactive) | > 100 µM (inactive) | > 100 µM (inactive) | > 100 µM (inactive) | > 100 µM (inactive) | > 100 µM (inactive) | > 100 µM (inactive) | > 100 µM (inactive) | > 100 µM |
| N#CCc1nc(-c2cc3c(ccc4ccccc43)oc2=O)cs1 | 18.9 µM (inactive) | 20.3 µM (inactive) | 27.8 µM (inactive) | 13 µM (inactive) | > 100 µM (inactive) | 73.1 µM (inactive) | 19.1 µM (inactive) | 50.1 µM (inactive) | 20.3 µM (inactive) | > 100 µM (inactive) | 23 µM (inactive) |  | 69.3 µM (inactive) | 43.1 µM (inactive) | 24.7 µM (inactive) | 18.1 µM (inactive) | 16.7 µM (inactive) | 23.1 µM (inactive) | 26.7 µM (inactive) | 69.3 µM |
| CCOC(=O)[C@@]1(C(C)=O)CC(C)=C(C)C[S@@+]1[O-] | > 100 µM (inactive) | > 100 µM (inactive) | > 100 µM (inactive) | > 100 µM (inactive) | > 100 µM (inactive) |  | > 100 µM (inactive) | > 100 µM (inactive) | > 100 µM (inactive) | > 100 µM (inactive) | > 100 µM (inactive) | > 100 µM (inactive) | > 100 µM (inactive) | > 100 µM (inactive) | > 100 µM (inactive) | > 100 µM (inactive) | > 100 µM (inactive) | > 100 µM (inactive) | > 100 µM (inactive) | > 100 µM |
| c1ccc(/N=C2\c3ccsc3/C(=N/c3ccccc3)c3ccsc32)cc1 | 1.91 µM (inactive) | 2.09 µM (inactive) | 1.52 µM (inactive) | 1.98 µM (inactive) | 0.213 µM (active) | 2.67 µM (inactive) | 1.98 µM (inactive) | 4.49 µM (inactive) | 2.24 µM (inactive) | 2.63 µM (inactive) | 1.98 µM (inactive) | 0.914 µM (active) | 3.94 µM (inactive) | 2.01 µM (inactive) | 5.57 µM (inactive) | 5.6 µM (inactive) | 1.63 µM (inactive) | 1.6 µM (inactive) | 1.7 µM (inactive) | 2.04 µM |
| Cc1cn([C@H]2C[C@](C)(CO)N(C)O2)c(=O)[nH]c1=O | > 100 µM (inactive) | > 100 µM (inactive) | > 100 µM (inactive) | > 100 µM (inactive) | > 100 µM (inactive) | > 100 µM (inactive) | > 100 µM (inactive) | > 100 µM (inactive) | > 100 µM (inactive) | > 100 µM (inactive) | > 100 µM (inactive) | > 100 µM (inactive) | > 100 µM (inactive) | > 100 µM (inactive) | > 100 µM (inactive) | > 100 µM (inactive) | > 100 µM (inactive) | > 100 µM (inactive) | > 100 µM (inactive) |  |
| CC[C@]1(Cc2ccc(OC)c(OC)c2)C=[N+]([O-])O[C@H](OC2CCCC2(c2ccccc2)c2ccccc2)[C@@H]1OC(=O)c1ccccc1 (stereo not given in full) | 42.1 µM (inactive) | 3.86 µM (inactive) | 2.73 µM (inactive) | 3.87 µM (inactive) | 3.73 µM (inactive) | 3.57 µM (inactive) | > 29.2 µM (inactive) | > 100 µM (inactive) | > 100 µM (inactive) | 8.79 µM (inactive) | 4.73 µM (inactive) | 6.37 µM (inactive) | 9.71 µM (inactive) | 14.2 µM (inactive) | 18 µM (inactive) |  | 9.89 µM (inactive) | 8 µM (inactive) | 14.1 µM (inactive) | 11.7 µM |
| CCN(CC)C(=S)SC(=S)N(CC)CC | 36 µM (inactive) | 42.6 µM (inactive) | 32.4 µM (inactive) | 0.0951 µM (active) | 34.1 µM (inactive) |  | 49.8 µM (inactive) | 36.1 µM (inactive) | 50.7 µM (inactive) | 18.3 µM (inactive) | 42.5 µM (inactive) | 26.2 µM (inactive) | 1.93 µM (inactive) | 2.3 µM (inactive) | 33.7 µM (inactive) | > 51.2 µM (inactive) | 53.7 µM (inactive) | 31.3 µM (inactive) | 39.8 µM (inactive) | 55 µM |
